# Counter-ions that a name gives are not always drawn.
# Assays:
# Type in all cases: cell-based, Staphylococcus aureus
# vraR transcription = experiment: Tertiary screen: qRT-PCR of vraR in strain 923; conditions: for classification of lux screen result against qRT-PCR (true/false repressor or stimulator): in the presence of oxacillin; for Effect on vraSR Transcription: With oxacillin: compound 10 μM + oxacillin 2 μg/mL; for Effect on vraSR Transcription: Compound alone: compound 10 μM, no oxacillin
# [1] = tested on: MRSA strain USA300 Pvra-lux; conditions: compound 10 μM + oxacillin 2 μg/mL; for RG avg (relative growth): ratio of OD600 to oxacillin alone, four runs
# Description: (§1) In the secondary screen each microtiter plate contained either cells in TSB alone (16 replicates), cells with oxacillin (2 μg/mL, 31 replicates), or cells with test compound and oxacillin (2 μg/mL, 49 wells). Each compound was assayed in four separate biological replicates.
# (§2) All compounds classified in the primary screen as synergists that were vraSR-stimulating or -repressing (as shown in Table 8) were screened in a secondary assay for their effects on both growth and Pvra::lux induction by oxacillin. […] Each compound was tested four separate times at 10 μM in the presence of oxacillin (2 μg/mL) and luminescence was measured every 15 minutes. Relative growth (RG) and relative luminescence (RL) was calculated as the ratio between the OD600 or max LU value in the presence of compound and oxacillin over the average from pooled control values obtained from the same plate. […] Compounds that produced an average RG (ratio of the OD600 of the culture grown with test compound combined with oxacillin to that of oxacillin alone) of <0.8 were classified as oxacillin synergists or potentiators. The relative luminescence (RL) was the ratio of the LU produced in the presence of the test compound combined with oxacillin to that produced by oxacillin alone. Compounds were classified as “vraSR repressors” (mean RL of <0.8), “vraSR stimulators”, (mean RL>1.2), and “vraSR neutral” (mean RL between 0.80-1.2). […] In contrast, 34 compounds had no effect on growth in the presence of oxacillin (“un” in the OD600 category). Among the oxacillin potentiators, there were 2 vraSR stimulators, 3 vraSR neutral compounds and 10 vraSR repressors.
# [2] = tested on: vraSR transcription (Pvra::lux); conditions: compound 10 μM + oxacillin 2 μg/mL; for RL avg (relative luminescence): ratio of LU to oxacillin alone, four runs
# Description: as §1, §2
Compound,classification of lux screen result against qRT-PCR (true/false repressor or stimulator) (vraR transcription),"Effect on vraSR transcription (summary) (vraR transcription; qRT-PCR of vraR, alone and with oxacillin)",Effect on vraSR Transcription: With oxacillin (vraR transcription; qRT-PCR of vraR),"Effect on vraSR Transcription: With oxacillin (vraR transcription; qRT-PCR of vraR, listed as fluspirilene)",Effect on vraSR Transcription: Compound alone (vraR transcription; qRT-PCR of vraR),OD600 category [1],RG avg (relative growth) [1],Effect on vraSR transcription [2],RL avg (relative luminescence) [2],"Effect on vraSR Transcription: With oxacillin (vraR transcription; qRT-PCR of vraR, listed as diethylstilbesterol)","Effect on vraSR Transcription: With oxacillin (vraR transcription; qRT-PCR of vraR, hydrochloride)"
OC(Cn1cncn1)(Cn1cncn1)c1ccc(F)cc1F [fluconazole],false stimulator,,,,,,,,,,
O=C1NCN(c2ccccc2)C12CCN(CCCC(c1ccc(F)cc1)c1ccc(F)cc1)CC2 [Fluspirilen],,No effect,vraR neutral,none,none,inhibited (of <0.8 were classified as oxacillin synergists or potentiators),0.47,"stimulate (“vraSR stimulators”, (mean RL>1.2))",0.28,,
CC/C(=C(/CC)c1ccc(O)cc1)c1ccc(O)cc1 [Diethylstilbestrol],,,super-stimulate,,None,inhibited (of <0.8 were classified as oxacillin synergists or potentiators),0.41,repress (“vraSR repressors” (mean RL of <0.8)),0.26,enhanced oxacillin's effect on vraR transcription,
Spiramycin,,,super-stimulate,,None,inhibited (of <0.8 were classified as oxacillin synergists or potentiators),0.43,repress (“vraSR repressors” (mean RL of <0.8)),0.31,,
CCN1CCN(C(=O)N[C@@H](C(=O)N[C@@H]2C(=O)N3C(C(=O)O)=C(CSc4nnnn4C)CS[C@H]23)c2ccc(O)cc2)C(=O)C1=O [Cefoperazone dihydrate],,,,,stimulate,inhibited (of <0.8 were classified as oxacillin synergists or potentiators),0.79,neutral (“vraSR neutral” (mean RL between 0.80-1.2)),0.77,,
CN(C)CCn1nnnc1SCC1=C(C(=O)O)N2C(=O)[C@@H](NC(=O)Cc3csc(N)n3)[C@H]2SC1 [Cefotiam hydrochloride],,,,,stimulate,inhibited (of <0.8 were classified as oxacillin synergists or potentiators),0.64,neutral (“vraSR neutral” (mean RL between 0.80-1.2)),0.64,,vraR activator
"CO[C@H]1C[C@H](O[C@H]2[C@H](C)[C@@H](O[C@@H]3O[C@H](C)C[C@H](N(C)C)[C@H]3O)[C@@H](C)C[C@@]3(CO3)C(=O)[C@H](C)[C@@H](O)[C@@H](C)[C@@H](C)OC(=O)[C@@H]2C)O[C@@H](C)[C@@H]1O [Oleandomycin phosphate, (3R,5R,6S,7R,8R,11R,12S,13R,14S,15S)-14-((2S,3R,4S,6R)-4-(dimethylamino)-3-hydroxy-6-methyltetrahydro-2H-pyran-2-yloxy)-6-hydroxy-12-((2R,4S,5S,6S)-5-hydroxy-4-methoxy-6-methyltetrahydro-2H-pyran-2-yloxy)-5,7,8,11,13,15-hexamethyl-1,9-dioxaspiro[2.13]hexadecane-4,10-dione]",true vraSR expression repressors,,repress,,,inhibited (of <0.8 were classified as oxacillin synergists or potentiators),0.19,repress (“vraSR repressors” (mean RL of <0.8)),0.20,,
C#C[C@]1(O)CC[C@H]2[C@@H]3CCC4=CCCC[C@@H]4[C@H]3CC[C@@]21C [Lynestrenol],,,,,stimulate,inhibited (of <0.8 were classified as oxacillin synergists or potentiators),0.47,repress (“vraSR repressors” (mean RL of <0.8)),0.26,,
C#C[C@]1(O)CC[C@H]2[C@@H]3CCc4cc(OC)ccc4[C@H]3CC[C@@]21C [Ethynylestradiol 3-methyl ether],,,,,,un (no effect on growth in the presence of oxacillin (“un” in the OD600 category)),0.95,repress (“vraSR repressors” (mean RL of <0.8)),0.97,,
NS(=O)(=O)c1cc2c(cc1Cl)NC(C(Cl)Cl)NS2(=O)=O (stereo not drawn) [Trichlormethiazide],,,,,,un (no effect on growth in the presence of oxacillin (“un” in the OD600 category)),1.10,neutral (“vraSR neutral” (mean RL between 0.80-1.2)),1.06,,
C=C1CC[C@H](O)C/C1=C/C=C1\CCC[C@]2(C)[C@@H]([C@H](C)/C=C/[C@H](C)C(C)C)CC[C@@H]12 [Calciferol],,,,,,un (no effect on growth in the presence of oxacillin (“un” in the OD600 category)),0.96,neutral (“vraSR neutral” (mean RL between 0.80-1.2)),0.88,,
COc1ccc(-c2cc(=O)c3c(O)cc(O)cc3o2)cc1 [Acacetin],,,,,,un (no effect on growth in the presence of oxacillin (“un” in the OD600 category)),0.91,neutral (“vraSR neutral” (mean RL between 0.80-1.2)),0.88,,
C=C(C)[C@@H]1CC[C@]2(C(=O)O)CC[C@]3(C)[C@H](CC[C@@H]4[C@@]5(C)CC[C@H](O)C(C)(C)[C@@H]5CC[C@]43C)[C@@H]12 [Betulinic acid],,,,,,un (no effect on growth in the presence of oxacillin (“un” in the OD600 category)),0.87,neutral (“vraSR neutral” (mean RL between 0.80-1.2)),0.83,,
CCCCN(CCCC)CCCOC(=O)c1ccc(N)cc1 [Butacaine],,,,,,un (no effect on growth in the presence of oxacillin (“un” in the OD600 category)),1.03,neutral (“vraSR neutral” (mean RL between 0.80-1.2)),0.98,,
C[C@H]1[C@H](C)CC[C@]2(C(=O)O)CC[C@]3(C)C(=CC[C@@H]4[C@@]5(C)CC[C@H](O)C(C)(C)[C@@H]5CC[C@]43C)[C@H]12 [Ursolic acid],,,,,stimulate,inhibited (of <0.8 were classified as oxacillin synergists or potentiators),0.77,repress (“vraSR repressors” (mean RL of <0.8)),0.71,,
C(=C\c1ccccc1)/CN1CCN(C(c2ccccc2)c2ccccc2)CC1 [Cinnarizine],,,,,,un (no effect on growth in the presence of oxacillin (“un” in the OD600 category)),0.97,neutral (“vraSR neutral” (mean RL between 0.80-1.2)),0.94,,
O=c1[nH]c2ccccc2n1CCCN1CCC(n2c(=O)[nH]c3cc(Cl)ccc32)CC1 [Domperidone],,,,,,un (no effect on growth in the presence of oxacillin (“un” in the OD600 category)),0.91,neutral (“vraSR neutral” (mean RL between 0.80-1.2)),0.85,,
NS(=O)(=O)c1cc2c(cc1Cl)N=C(CSCc1ccccc1)NS2(=O)=O [Benzthiazide],,,,,,un (no effect on growth in the presence of oxacillin (“un” in the OD600 category)),1.01,neutral (“vraSR neutral” (mean RL between 0.80-1.2)),0.95,,
N[C@@H](Cc1cc(I)c(Oc2ccc(O)c(I)c2)c(I)c1)C(=O)O [Liothyronine],,,,,,un (no effect on growth in the presence of oxacillin (“un” in the OD600 category)),0.88,neutral (“vraSR neutral” (mean RL between 0.80-1.2)),0.87,,
O=C1OC(CN2CCOCC2)CN1/N=C/c1ccc([N+](=O)[O-])o1 (stereo not drawn) [Furaltadone hydrochloride],,,,,,un (no effect on growth in the presence of oxacillin (“un” in the OD600 category)),1.00,repress (“vraSR repressors” (mean RL of <0.8)),1.01,,
